Data on four molecules can be found in doi:10.1101/2020.11.18.387670v2 (biorxiv, 2020).

One assay concerns the target TRIM28 (Homo sapiens, UniProt Q13263). Description: SPR. Type of assay: binding.
A further assay deals with PKM2 (Homo sapiens, UniProt P14618). Put plainly: SPR. Type of assay: binding.
The next assay has as its target GAPDH (Homo sapiens, UniProt P04406). Put plainly: NADH absorbance at […] nm. Type of assay: biochemical. The conditions noted are these: activator, allosteric suggested; 1 mM NAD+, 2.88 mM G3P, 20 mM arsenate, pH 8.5.
In assay [1] the target is T1, α-enolase (ENO1) (Homo sapiens, UniProt P06733). Description: SPR. Type of assay: binding.
The target of assay [2] is T2, α-enolase (ENO1) (Homo sapiens, UniProt P06733, K330E). Description: SPR. Type of assay: binding.
Assay [3] addresses T1, α-enolase (ENO1). Description: PKM1-coupled luminescent Kinase-Glo assay. Type of assay: biochemical. (In Kinase-Glo more light means more ATP remaining.)
The target of assay [4] is T2, α-enolase (ENO1). Description: PKM1-coupled luminescent Kinase-Glo assay. Type of assay: biochemical.

T1 sequence (P06733 whole entry): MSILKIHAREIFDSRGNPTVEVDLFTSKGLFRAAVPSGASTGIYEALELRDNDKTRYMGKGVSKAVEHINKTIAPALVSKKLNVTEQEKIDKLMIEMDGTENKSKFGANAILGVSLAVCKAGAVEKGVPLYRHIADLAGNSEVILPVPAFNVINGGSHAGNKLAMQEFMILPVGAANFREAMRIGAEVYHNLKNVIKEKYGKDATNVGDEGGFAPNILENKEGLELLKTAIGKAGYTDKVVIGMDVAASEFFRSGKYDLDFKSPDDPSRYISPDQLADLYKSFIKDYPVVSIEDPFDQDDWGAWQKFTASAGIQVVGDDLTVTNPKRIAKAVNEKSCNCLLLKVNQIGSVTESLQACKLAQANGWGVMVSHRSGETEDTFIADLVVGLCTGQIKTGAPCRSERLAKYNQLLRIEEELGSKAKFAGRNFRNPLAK
T2 sequence (P06733 whole entry K330E): as the sequence (P06733 whole entry) above, with K330E counted along it
Chain of PKM2 (P14618 2-531): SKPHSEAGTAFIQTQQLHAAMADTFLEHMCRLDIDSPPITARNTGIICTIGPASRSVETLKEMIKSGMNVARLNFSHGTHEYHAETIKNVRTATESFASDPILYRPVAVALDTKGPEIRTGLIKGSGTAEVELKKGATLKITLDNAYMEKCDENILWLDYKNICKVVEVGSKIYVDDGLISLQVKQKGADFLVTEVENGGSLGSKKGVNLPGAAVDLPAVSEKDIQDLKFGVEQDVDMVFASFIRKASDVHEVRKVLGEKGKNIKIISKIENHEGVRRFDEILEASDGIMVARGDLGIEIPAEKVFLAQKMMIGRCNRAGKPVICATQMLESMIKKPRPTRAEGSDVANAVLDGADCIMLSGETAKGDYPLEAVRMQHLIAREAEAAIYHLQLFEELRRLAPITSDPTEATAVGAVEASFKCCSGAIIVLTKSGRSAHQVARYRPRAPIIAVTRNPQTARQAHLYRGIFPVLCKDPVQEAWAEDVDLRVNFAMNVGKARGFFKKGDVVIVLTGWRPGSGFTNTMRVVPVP
Chain of TRIM28 (Q13263 whole entry): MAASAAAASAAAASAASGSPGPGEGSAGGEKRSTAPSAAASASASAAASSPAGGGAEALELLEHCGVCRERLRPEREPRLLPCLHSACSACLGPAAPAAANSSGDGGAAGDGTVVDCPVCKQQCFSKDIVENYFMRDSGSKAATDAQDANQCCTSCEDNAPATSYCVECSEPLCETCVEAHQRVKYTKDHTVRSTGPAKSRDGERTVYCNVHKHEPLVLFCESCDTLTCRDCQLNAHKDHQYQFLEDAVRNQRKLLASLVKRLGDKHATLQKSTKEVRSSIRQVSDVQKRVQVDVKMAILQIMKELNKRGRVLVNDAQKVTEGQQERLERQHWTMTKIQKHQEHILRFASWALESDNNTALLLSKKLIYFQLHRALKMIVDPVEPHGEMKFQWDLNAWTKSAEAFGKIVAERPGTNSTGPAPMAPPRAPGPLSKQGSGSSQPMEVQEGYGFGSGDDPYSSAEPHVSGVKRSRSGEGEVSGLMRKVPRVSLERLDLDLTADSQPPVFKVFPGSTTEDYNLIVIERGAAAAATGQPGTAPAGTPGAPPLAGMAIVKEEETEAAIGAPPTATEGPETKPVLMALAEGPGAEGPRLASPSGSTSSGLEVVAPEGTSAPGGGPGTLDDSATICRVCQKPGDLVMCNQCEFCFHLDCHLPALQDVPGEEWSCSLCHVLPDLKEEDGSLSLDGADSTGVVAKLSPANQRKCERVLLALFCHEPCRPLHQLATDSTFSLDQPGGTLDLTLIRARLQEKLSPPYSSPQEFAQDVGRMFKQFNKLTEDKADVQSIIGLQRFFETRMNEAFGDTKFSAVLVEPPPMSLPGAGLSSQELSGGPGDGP
Chain of GAPDH (P04406 2-335): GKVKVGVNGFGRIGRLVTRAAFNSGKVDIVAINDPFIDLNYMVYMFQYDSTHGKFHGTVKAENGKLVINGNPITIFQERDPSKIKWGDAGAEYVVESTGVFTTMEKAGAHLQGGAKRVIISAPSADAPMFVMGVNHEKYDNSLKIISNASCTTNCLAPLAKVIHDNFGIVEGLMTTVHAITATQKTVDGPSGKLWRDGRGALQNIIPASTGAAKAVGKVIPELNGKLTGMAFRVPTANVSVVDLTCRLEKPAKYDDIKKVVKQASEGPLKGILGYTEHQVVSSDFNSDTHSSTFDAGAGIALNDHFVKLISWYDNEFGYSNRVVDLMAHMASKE

In the case of `C[C@H](O)C(=O)O` [lactate], binding at TRIM28 was characterised by a dissociation constant (Kd) of 0.0412 µM. For the molecule `O=C(O)[C@H](O)COP(=O)(O)O` [3PG], the affinity at PKM2, expressed as Kd, was 0.26 µM. That is a sub-micromolar value.

For the molecule `CC(=O)C(=O)O` [pyruvate], the “NADH absorbance at 340 nm” value at GAPDH was “pyruvate can bind to and activate GAPDH”. `O=CC(O)COP(=O)(O)O` (racemic) [G3P]: the Kd was 0.0254 µM on α-enolase (ENO1) [1] and 10.3 µM on α-enolase (ENO1) [2]. Besides, the IC50 on α-enolase (ENO1) [3] amounted to 113 µM; against α-enolase (ENO1) [4] it was 1170 µM.

As usually defined, the Kd is the equilibrium constant for the complex coming apart. High values mean a looser complex, low ones a tighter complex. As usually defined, the IC50 is the concentration needed to halve the response being measured. Read a low IC50 as greater potency.
